Results as given in US7803364B2, “Multipotent neural stem cells” (The Cleveland Clinic Foundation, priority 2005, dated 2010).

Experiments:
[1] = tested on: βT4 secondary neurospheres; experiment: Secondary βT4 neurosphere differentiation into TuJ1-positive neurons and O4-positive oligodendrocytes; format: cell-based, rat; details: PDGF-A alone or in combination with SHH
Source text: With this assay, we will determine whether growth factors or secreted products from activated immune cells affect βT4 neurosphere behavior. Using standard neurosphere medium and N2 only medium as positive and negative controls for cell growth, we tested the effects of two concentrations of sonic hedgehog on oligodendrocyte and neuron production.
If βT4 cells represent a CNS stem cell, growth factors should induce βT4 cell division and regulate the production of mature CNS cells. […]
Undissociated secondary neurospheres were plated onto PLL-coated coverslips and analyzed at either 24 hours or 7 days in vitro with DMEM/F12, Glutamax and Penicillin-Streptomycin (1%, Cellgro) with different supplements as follows: N2 (1%); N2 (1%) plus sonic hedgehog (SHH, 1000 ng/ml, R&D, Minneapolis, Minn.); “neurosphere medium” (N2 (1%), EGF (20 ng/ml), FGF2, 20 ng/ml).
βT4 positive cell percentage in control and Ara-C-treated cultures were quantified by counting 10 randomly selected fields using standard fluorescence microscopy and a 20× objective. βT4 positive primary neurosphere and secondary neurosphere percentage were quantified by counting 10 randomly selected fields using a 10× objective. […]

[2] = tested on: βT4 cells in neurospheres from P4 rat brain lateral ventricle; experiment: Ara-C enrichment of βT4 cells in neurosphere cultures; format: cell-based
Source text: We developed in vitro methods to study and enrich for βT4 cells. We harvested the lateral and medial wall of the lateral ventricles from P4 rat brain. As shown schematically in FIG. 12A, the tissue was dissociated into single cells and placed in neurosphere assay medium. Four days later, we attached the neurospheres to coverslips and stained for βT4. […] In an attempt to purify or enrich for βT4 cells, we treated P4 neurospheres (on coverslips) with cytosine-β-D-arabinofuranoside (Ara-C; for 4 days), which kills actively dividing cells. We dissociated the remaining cells and placed them in neurosphere-forming conditions for 4 days, plated the resulting neurospheres on coverslips and stained them for βIV tubulin.
The “dissociated” cultures had growth properties similar to the plated primary neurospheres.
Primary neurospheres, generated as described above, were dissociated with trypsin and trituration and then plated onto poly-L-lysine-coated (P-1274, Sigma) coverslips (10^5 cells/12 mm coverslip). The coverslips were incubated in neurosphere medium with cytoarabinoside-C (Ara-C, 10 μM, Sigma) for 4 days. Cells were detached from the coverslips by incubation on ice. […] The neurospheres resulting from these procedures are defined as secondary neurospheres and were analyzed by immunocytochemistry as described above or induced to differentiate.

## PDGF-A: platelet-derived growth factor added alone or with SHH
[1]
  effect on differentiation of secondary neurospheres: had not effect on differentiation

## cytosine-β-D-arabinofuranoside [Ara-C]
[2]; Ara-C 4 days versus culture without Ara-C (0.03%)
  enrichment in βT4 cells: 2700 fold
[2]; secondary neurospheres made from Ara-C-resistant primary neurospheres
  percent of cells in secondary neurospheres βT4-positive: > 83%
